Source: ChEMBL document CHEMBL1146241, “Novel inhibitor for fibroblast growth factor receptor tyrosine kinase” (Bioorg Med Chem Lett, 2007)

Assays:
[1] = target: T1, Fibroblast growth factor receptor 1 (Homo sapiens, UniProt P11362); settings: HUVEC
Target sequence in this assay (P11362 22-822 limits assumed): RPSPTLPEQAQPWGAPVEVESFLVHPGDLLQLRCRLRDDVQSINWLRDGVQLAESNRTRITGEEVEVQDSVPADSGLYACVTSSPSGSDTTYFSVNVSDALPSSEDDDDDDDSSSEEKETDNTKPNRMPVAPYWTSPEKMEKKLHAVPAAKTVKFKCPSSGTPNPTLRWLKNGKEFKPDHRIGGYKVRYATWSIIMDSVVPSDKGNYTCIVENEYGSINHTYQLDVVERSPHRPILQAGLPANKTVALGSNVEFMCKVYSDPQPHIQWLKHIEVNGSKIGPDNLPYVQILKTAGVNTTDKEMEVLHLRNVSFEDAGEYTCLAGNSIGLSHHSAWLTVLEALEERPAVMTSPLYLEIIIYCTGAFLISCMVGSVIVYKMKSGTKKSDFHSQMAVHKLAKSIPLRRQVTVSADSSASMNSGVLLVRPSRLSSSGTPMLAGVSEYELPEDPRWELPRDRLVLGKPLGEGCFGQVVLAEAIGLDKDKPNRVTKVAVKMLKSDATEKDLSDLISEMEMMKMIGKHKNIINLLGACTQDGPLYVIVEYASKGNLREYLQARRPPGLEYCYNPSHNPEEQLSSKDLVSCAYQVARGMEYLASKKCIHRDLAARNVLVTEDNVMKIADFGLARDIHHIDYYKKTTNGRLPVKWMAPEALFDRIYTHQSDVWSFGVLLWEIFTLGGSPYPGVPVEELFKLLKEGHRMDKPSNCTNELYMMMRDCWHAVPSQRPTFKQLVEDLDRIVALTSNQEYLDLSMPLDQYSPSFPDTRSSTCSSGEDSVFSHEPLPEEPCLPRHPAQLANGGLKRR
Description: Inhibition of rhFGF2-induced cellular proliferation of HUVEC

[2] = target: T1, Fibroblast growth factor receptor 1; experiment: Inhibition of human FGFR1 kinase expressed in insect cell by HTRF detection method
Target sequence in this assay (P11362 whole entry): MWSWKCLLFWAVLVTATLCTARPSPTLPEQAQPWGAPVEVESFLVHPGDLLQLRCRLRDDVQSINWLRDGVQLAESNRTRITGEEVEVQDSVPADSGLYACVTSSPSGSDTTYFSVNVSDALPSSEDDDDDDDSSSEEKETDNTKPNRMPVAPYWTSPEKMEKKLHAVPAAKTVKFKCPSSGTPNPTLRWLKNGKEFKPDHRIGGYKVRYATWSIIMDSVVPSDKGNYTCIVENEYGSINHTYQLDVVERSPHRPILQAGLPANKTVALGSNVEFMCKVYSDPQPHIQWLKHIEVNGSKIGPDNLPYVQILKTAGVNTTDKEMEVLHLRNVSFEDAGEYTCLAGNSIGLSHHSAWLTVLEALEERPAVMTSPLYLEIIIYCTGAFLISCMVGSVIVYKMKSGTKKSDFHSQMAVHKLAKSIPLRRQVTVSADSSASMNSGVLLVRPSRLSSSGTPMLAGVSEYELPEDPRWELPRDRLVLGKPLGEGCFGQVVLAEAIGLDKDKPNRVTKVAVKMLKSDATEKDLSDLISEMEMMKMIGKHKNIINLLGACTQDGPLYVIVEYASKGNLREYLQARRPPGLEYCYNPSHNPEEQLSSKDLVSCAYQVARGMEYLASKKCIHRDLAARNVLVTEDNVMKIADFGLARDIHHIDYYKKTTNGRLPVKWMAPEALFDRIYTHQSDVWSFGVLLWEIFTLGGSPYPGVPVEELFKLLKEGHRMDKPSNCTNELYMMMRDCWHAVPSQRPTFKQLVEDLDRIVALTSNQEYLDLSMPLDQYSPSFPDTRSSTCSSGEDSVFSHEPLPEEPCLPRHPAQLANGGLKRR

Row | Structure (SMILES) | MEC [1] [µM] | IC50 [2] [nM]
1 | COc1cccc(-c2ccc3c(c2)NC(=O)/C3=C\c2[nH]c(C)c(CCC(=O)O)c2C)c1 | 0.4 | 1200
2 | Cc1[nH]c(/C=C2\C(=O)Nc3ccccc32)c(C)c1CCC(=O)O | 10 | –
3 | COc1cc(OC)cc(-c2ccc3c(c2)NC(=O)/C3=C\c2[nH]c(C)c(CCC(=O)O)c2C)c1 | 0.4 | 400
